Earlier results, collected in US8318452B2, “Solid culture medium for the detection and/or the species discrimination of glycopeptide-resistant enterococci” (priority 2006, dated 2012).

Legend:
[1] = tested on: VanC type glycopeptide-resistant enterococci; conditions: Type of glycopeptide resistance VanC
[2] = tested on: VanB type glycopeptide-resistant enterococci; conditions: Type of glycopeptide resistance VanB

Substance: teicoplanin
- MIC [1]: 0.5 to 1 µg/mL
- MIC [2]: 0.5 to 1 µg/mL
